Earlier results in US20230240985A1, “STABLE PHARMACEUTICAL COMPOSITION OF TOPIRAMATE” (ALKEM LABORATORIES LIMITED, priority 2022, published 2023).

solubility in organic solvents (acetone, chloroform, dimethylsulfoxide, and ethanol): freely soluble | solubility in alkaline solutions (alkaline solutions containing sodium hydroxide or sodium phosphate, pH of 9 to 10): most soluble | stability in aqueous solution (aqueous solution): not stable | pH of saturated solution (saturated solution): 6.3
SMILES: CC1(C)O[C@@H]2[C@@H](CO[C@@]3(COS(N)(=O)=O)OC(C)(C)O[C@@H]23)O1 [Topiramate, 2,3:4,5-Di-O-isopropylidine-β-D-fructopyranose sulfamate]
